The values that follow come from patent US20250084097A1, “MACROCYCLIC AMIDE COMPOUNDS AND APPLICATION THEREOF” (Medshine Discovery Inc., priority 2021, published 2025).

SMILES strings stand for the structures.

The target in series [1] is T1, EGFR (del19-E746-A750/T790M/C797S) (Homo sapiens, UniProt P00533, C797S/DEL746-750/T790M).
T1 construct: Reaction Biology Corp. (assay performed there)
Description: Kinase inhibitory activity, 33P-ATP filtration-binding (Reaction Biology Corp.). Format: biochemical. The conditions noted are these: ATP 100 μM; read-out: Kinase half-maximal inhibition concentration IC50 EGFR(del19-E746-A750/T790M/C797S). As to the method: (§1) Compound assay for kinase inhibitory activity against EGFR (L858R/T790M/C797S), EGFR (del19-E746-A750/T790M/C797S), and EGFR (WT) was done at Reaction Biology Corp. In reaction buffer (20 mM Hepes (pH 7.5), 10 mM magnesium chloride (MgCl2), 1 mM ethylenebis(oxyethylenenitrilo)tetraacetic acid (EGTA), 0.02% polyethylene glycol monododecyl ether (Brij35), 0.02 mg/ml BSA, 0.1 mM sodium vanadate (Na3VO4), 2 mM dithiothreitol (DTT), 1% DMSO), a certain concentration of substances, coenzyme factors, kinases and test compounds (10 doses, 3-fold serial dilutions, 2% DMSO final concentration) were added in sequence, and mixed well. The mixture was incubated at room temperature for 20 minutes. A certain concentration of ^33P-ATP was added to the reaction mixture to initiate reaction, followed by incubation at room temperature for 120 minutes. Finally, the radioactivity of the reactants was detected by filtration-binding method. The final kinase activity was expressed as the ratio of the remaining kinase activity of the test sample to the kinase activity of the DMSO control group. The dose-response relationship curve was fitted and IC50 was calculated using GraphPad software.

The target in another series is T2, EGFR (L858R/T790M/C797S) (Homo sapiens, UniProt P00533, C797S/L858R/T790M).
T2 construct: Reaction Biology Corp. (assay performed there)
T2 sequence (P00533 25-1210 T790M/C797S/L858R): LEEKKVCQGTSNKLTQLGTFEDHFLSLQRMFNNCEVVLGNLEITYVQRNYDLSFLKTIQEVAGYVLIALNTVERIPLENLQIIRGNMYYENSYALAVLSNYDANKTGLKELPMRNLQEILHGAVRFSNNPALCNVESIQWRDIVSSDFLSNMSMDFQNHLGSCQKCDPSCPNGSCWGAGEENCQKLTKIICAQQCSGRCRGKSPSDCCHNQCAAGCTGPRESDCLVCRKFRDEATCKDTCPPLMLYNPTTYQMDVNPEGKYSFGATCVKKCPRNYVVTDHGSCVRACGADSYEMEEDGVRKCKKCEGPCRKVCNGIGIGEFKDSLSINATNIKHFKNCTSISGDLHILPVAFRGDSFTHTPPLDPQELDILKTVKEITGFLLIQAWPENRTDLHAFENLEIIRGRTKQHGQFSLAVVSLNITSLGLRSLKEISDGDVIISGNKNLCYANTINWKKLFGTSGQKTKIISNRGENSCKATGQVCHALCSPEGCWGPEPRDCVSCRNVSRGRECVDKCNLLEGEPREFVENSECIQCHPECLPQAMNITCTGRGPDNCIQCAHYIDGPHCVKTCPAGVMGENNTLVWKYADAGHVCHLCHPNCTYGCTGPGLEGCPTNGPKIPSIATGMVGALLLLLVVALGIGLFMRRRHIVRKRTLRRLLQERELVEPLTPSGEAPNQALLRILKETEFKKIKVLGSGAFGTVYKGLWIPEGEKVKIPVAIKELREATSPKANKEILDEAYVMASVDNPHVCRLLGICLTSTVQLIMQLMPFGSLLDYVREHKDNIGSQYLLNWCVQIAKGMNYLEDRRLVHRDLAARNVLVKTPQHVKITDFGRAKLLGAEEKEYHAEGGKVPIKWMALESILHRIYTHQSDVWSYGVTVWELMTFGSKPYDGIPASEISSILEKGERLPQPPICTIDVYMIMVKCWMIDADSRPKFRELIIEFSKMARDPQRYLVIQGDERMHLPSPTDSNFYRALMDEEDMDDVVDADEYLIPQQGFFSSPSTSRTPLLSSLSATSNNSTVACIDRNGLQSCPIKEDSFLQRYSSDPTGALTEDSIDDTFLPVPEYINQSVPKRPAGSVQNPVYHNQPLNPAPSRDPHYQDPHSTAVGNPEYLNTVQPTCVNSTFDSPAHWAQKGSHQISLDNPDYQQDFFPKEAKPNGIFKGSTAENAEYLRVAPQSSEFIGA
The series is described as above. The class given is biochemical. The following applies: ATP 100 μM; read-out: Kinase half-maximal inhibition concentration IC50 EGFR(L858R/T790M/C797S). As to the method:
as §1

In a further series the target is T3, EGFR (WT) (Homo sapiens, UniProt P00533).
T3 construct: Reaction Biology Corp. (assay performed there)
T3 sequence (P00533 25-1210): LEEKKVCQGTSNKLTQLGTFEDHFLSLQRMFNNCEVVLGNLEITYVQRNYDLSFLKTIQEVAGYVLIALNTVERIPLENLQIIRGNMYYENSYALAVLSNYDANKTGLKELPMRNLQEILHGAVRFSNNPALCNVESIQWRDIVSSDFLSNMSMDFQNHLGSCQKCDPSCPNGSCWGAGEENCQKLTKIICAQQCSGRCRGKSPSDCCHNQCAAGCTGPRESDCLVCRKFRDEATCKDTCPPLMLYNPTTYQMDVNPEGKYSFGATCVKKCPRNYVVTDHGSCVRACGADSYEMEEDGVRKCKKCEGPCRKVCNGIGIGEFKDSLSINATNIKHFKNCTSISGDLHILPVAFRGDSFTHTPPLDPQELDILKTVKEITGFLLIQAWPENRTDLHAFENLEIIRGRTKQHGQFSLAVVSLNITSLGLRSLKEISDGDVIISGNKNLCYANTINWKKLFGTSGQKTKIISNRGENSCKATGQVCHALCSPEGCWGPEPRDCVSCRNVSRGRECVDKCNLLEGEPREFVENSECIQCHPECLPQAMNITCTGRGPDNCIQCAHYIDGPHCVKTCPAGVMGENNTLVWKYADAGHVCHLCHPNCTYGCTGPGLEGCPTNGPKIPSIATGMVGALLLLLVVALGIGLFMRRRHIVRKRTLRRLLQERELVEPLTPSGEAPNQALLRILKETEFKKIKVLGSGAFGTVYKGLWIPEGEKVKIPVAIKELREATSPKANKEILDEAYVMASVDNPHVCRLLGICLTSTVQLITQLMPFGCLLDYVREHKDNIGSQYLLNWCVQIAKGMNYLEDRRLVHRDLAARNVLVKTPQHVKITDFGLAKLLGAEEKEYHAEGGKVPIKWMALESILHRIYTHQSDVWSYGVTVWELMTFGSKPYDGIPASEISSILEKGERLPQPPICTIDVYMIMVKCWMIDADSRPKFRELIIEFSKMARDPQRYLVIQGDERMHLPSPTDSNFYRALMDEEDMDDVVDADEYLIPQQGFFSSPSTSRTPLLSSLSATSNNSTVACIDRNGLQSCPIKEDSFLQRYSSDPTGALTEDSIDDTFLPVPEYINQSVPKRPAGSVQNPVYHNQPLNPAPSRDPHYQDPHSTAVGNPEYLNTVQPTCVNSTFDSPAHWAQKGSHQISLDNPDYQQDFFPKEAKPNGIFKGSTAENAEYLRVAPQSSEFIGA
The series is described as above. The class given is biochemical. The conditions noted are these: ATP 100 μM; read-out: Kinase half-maximal inhibition concentration IC50 EGFR(WT). As to the method:
as §1

In the next series the target is T4, CYP2C19 (Homo sapiens, UniProt P33261).
T4 construct: from tissue; host or cells: human liver microsomes
T4 sequence (P33261 whole entry): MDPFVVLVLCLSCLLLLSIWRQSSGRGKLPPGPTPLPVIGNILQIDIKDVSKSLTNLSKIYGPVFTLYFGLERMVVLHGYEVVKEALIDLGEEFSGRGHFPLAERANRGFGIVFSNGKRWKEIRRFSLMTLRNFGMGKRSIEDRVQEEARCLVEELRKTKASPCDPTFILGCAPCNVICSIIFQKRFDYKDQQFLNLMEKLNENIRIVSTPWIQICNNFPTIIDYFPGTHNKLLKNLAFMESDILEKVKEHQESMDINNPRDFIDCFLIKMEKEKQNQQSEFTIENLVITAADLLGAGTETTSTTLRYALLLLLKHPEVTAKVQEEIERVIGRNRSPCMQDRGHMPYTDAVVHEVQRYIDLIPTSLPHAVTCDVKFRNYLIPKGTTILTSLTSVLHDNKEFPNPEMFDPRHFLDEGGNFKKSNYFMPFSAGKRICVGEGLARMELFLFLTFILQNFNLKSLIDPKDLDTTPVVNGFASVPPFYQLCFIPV
The series is described as follows: Cytochrome P450 isoenzyme inhibition, human liver microsomes. The conditions noted are these: read-out: Cytochrome P450 isoenzyme inhibitory concentration CYP2C19. Format: in vitro ADME. Here is the method:
(§2) The purpose of this study was to determine the inhibitory effect of test compounds on the activity of human liver microsomal cytochrome P450 isoenzymes (CYP1A2, CYP2C9, CYP2C19, CYP2D6 and CYP3A4).
(§3) Working solutions (100×final concentration) with concentrations of 5.00, 1.50, 0.500, 0.150, 0.0500, 0.0150, and 0.00500 mM were prepared by gradient dilution of the test compound (10.0 mM), while working solutions of each positive inhibitor and its specific substrate mixtures of P450 isozymes (CYP1A2, CYP2C9, CYP2C19, CYP2D6, and CYP3A4) were prepared; human liver microsomes stored in a refrigerator below −60° C. were thawed on ice; after all the human liver microsomes were thawed, the human liver microsomes were diluted with Potassium phosphate buffer (PB) to prepare a certain concentration of working solution (0.253 mg/ml).
(§4) First, 20.0 μL of the substrate mixture was added to a reaction plate (20.0 μL of PB was added to the Blank well), then 158 μL of human liver microsomal working solution was added to the reaction plate, and the reaction plate was placed on ice for use; at this time, 2.00 μL of each concentration of the test compound (N=1) and specific inhibitor (N=2) were added to the corresponding wells, and to the group without inhibitor (test compound or positive inhibitor) was added the corresponding organic solvent as control samples (1:1 DMSO:MeOH for the control sample of the test compound, and 1:9 DMSO:MeOH for all the positive control samples); after pre-incubation in a water bath at 37° C. for 10 min, 20.0 μL of cofactor (NADPH) solution was added to the reaction plate, and the reaction plate was incubated in a water bath at 37° C. for 10 min; The reaction was terminated by adding 400 μL of pre-cooled acetonitrile solution (containing 200 ng/mL Tolbutamide and Labetalol internal standard); the reaction plate was shaken on a shaker for 10 min; then centrifuged at 4000 rpm at 4° C. for 20 min; 200 μL of the supernatant was added to 100 μL of water to dilute the samples; and the plate was sealed, shaken for 10 min to mix well, and then analyzed by LC/MS/MS.
(§5) The rate of production of metabolites of each probe substrate was used to reflect the activity of each CYP isozyme. The activity of each isozyme in the solvent control incubation system without test article or positive inhibitor was set to be 100%, and the rate of production of metabolites of the probe substrate with different concentrations of test article or positive inhibitor was divided by the rate of production of metabolites of the solvent control samples, and then multiplied by 100% as the percentage of residual activity of each isozyme. The IC50 values of the test article and each positive inhibitor were calculated by nonlinear regression analysis using three or four parameters in XL fit software with the percentage of residual activity as the vertical coordinate and the inhibitor concentration as the horizontal coordinate. The IC50 values were labeled as “>50 μM” when the IC50 fitted by XL fit software was greater than the highest administered concentration (50 μM) or when the IC50 could not be fitted.
In general terms: Liver microsomes are vesicles of endoplasmic reticulum, rich in cytochrome P450 enzymes.

A further series addresses T5, CYP2D6 (Homo sapiens, UniProt P10635).
T5 construct: from tissue; host or cells: human liver microsomes
The description is as above. The class given is in vitro ADME. The following applies: read-out: Cytochrome P450 isoenzyme inhibitory concentration CYP2D6. Here is the method: as §2, §3, §4, §5

Series [2] can be described thus: Body weight of animals in the in vivo efficacy assay. The following applies: for Body weight of the mice compared to the control group (tolerance): 10 days of continuous administration, 10 mg/kg and 25 mg/kg. Here is the method:
Dosage according to mouse body weight: 10 μL/g. If the body weight decreases by more than 20%, the dosing regimen was adjusted accordingly.
The formulation and any modifications of this assay protocol were evaluated and approved by the Laboratory Animal Welfare Ethics Committee of the testing institution. The health status and death of animals were checked every day. Routine inspections included tumor growth, activity, diet, body weight, eyes, hair and other abnormal behaviors of animals. Tumor volume and body weight were measured three times a week (Monday, Wednesday and Friday). The tumor volume was measured with a vernier caliper, and the formula was TV=0.5 a×b^2, where a is the long diameter of a tumor and b is the short diameter of a tumor.
The body weight of assay animals was used as a reference index to indirectly determine drug toxicity.

[3] abbreviates: 10 mg/kg/bid, day 0 after administration.
Where [4] appears, read: 10 mg/kg/bid, day 3 after administration.
Setting [5] is: 10 mg/kg/bid, day 5 after administration.
The mark [6] stands for this setting: 10 mg/kg/bid, day 7 after administration.
The mark [7] stands for this setting: 10 mg/kg/bid, day 10 after administration.
Where [8] appears, read: 25 mg/kg/bid, day 0 after administration.
Where [9] appears, read: 25 mg/kg/bid, day 3 after administration.
The mark [10] stands for this setting: 25 mg/kg/bid, day 5 after administration.
Where [11] appears, read: 25 mg/kg/bid, day 7 after administration.
The mark [12] stands for this setting: 25 mg/kg/bid, day 10 after administration.

T1 sequence (P00533 with tags, fused parts or gaps DEL746-750/T790M/C797S): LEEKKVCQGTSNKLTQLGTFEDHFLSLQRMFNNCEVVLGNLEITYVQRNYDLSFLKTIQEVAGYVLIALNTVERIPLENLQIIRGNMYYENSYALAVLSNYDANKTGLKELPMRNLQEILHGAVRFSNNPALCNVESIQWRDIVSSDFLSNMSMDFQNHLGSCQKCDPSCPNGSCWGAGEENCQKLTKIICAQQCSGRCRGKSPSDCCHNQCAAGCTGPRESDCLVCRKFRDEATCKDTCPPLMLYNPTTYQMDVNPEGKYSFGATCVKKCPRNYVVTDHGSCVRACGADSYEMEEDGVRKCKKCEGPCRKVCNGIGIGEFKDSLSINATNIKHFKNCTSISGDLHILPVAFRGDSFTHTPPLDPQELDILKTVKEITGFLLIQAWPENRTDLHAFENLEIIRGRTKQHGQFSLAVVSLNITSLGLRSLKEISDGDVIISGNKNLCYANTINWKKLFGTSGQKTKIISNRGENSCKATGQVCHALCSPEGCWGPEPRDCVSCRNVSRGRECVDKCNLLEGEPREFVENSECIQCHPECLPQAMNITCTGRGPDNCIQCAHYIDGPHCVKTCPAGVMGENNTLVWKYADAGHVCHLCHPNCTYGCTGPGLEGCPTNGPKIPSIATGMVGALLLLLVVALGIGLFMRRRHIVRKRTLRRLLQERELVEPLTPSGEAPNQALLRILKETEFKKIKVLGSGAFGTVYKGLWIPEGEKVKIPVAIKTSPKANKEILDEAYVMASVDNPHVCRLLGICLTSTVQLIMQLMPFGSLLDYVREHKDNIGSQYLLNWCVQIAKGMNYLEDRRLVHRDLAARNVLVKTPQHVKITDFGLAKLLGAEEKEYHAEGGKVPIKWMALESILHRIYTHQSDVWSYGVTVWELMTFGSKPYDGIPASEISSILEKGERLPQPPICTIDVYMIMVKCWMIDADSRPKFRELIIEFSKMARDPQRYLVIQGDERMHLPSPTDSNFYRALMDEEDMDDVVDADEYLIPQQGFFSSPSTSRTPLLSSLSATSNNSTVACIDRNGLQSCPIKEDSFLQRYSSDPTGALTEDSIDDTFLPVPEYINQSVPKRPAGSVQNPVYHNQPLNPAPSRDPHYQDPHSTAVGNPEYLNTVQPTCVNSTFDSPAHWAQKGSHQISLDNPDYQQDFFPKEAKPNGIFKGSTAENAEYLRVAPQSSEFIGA
T5 sequence (P10635 whole entry): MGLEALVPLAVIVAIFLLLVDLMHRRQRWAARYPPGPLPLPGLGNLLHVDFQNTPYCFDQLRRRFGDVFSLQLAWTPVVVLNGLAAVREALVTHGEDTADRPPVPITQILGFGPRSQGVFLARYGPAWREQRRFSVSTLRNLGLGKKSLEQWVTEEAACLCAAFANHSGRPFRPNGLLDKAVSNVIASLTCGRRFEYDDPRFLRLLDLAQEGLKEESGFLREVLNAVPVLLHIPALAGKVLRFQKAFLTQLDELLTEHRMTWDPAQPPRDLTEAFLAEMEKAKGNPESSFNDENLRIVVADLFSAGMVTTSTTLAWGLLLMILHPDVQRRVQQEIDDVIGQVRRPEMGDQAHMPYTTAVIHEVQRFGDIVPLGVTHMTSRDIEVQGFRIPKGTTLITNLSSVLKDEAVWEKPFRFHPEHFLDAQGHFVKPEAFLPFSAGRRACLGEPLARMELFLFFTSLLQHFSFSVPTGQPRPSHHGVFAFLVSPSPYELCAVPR

Regarding `Cc1cc2cc(n1)-c1cnn(C)c1OC[C@H]1CC[C@H](C1)CN1/C(=N/C2=O)Nc2ccc(N=S(C)(C)=O)cc21` (single isomer, unassigned) [WX-027A], the IC50 in series [1] is 0.093 nM; at EGFR (L858R/T790M/C797S) it was 1.82 nM; at EGFR (WT), 55.8 nM; at CYP2C19, 9.8 µM; at CYP2D6, greater than 50 µM. Moreover, the Average body weight in series [2] (setting [3]) was 21.7 g; in series [2] (setting [4]), 21.9 g; in series [2] (setting [5]) it was 22.1 g; in series [2] (setting [6]), 22.1 g; in series [2] (setting [7]), 22.2 g; in series [2] (setting [8]), 21.0 g. The Average body weight worked out at 21.5 g in series [2] (setting [9]), 21.6 g in series [2] (setting [10]), 21.4 g in series [2] (setting [11]) and 21.8 g in series [2] (setting [12]). Moreover, the “Body weight of the mice compared to the control group (tolerance)” value in series [2] is “no significant difference”.
Consider `Cc1cc2cc(n1)-c1cnn(C)c1OCCC[C@@H](C)CN1/C(=N/C2=O)Nc2ccc(N=S(C)(C)=O)c(Cl)c21` [WX-019], for which the IC50 in series [1] is 0.139 nM; on EGFR (L858R/T790M/C797S) it was 3.55 nM; on EGFR (WT), 212 nM; at CYP2C19, 3.4 µM; on CYP2D6 it was greater than 50 µM. In addition, the Average body weight in series [2] (setting [3]) was determined as 20.6 g; in series [2] (setting [4]) it was 20.7 g; in series [2] (setting [5]) it was 20.8 g; in series [2] (setting [6]), 20.7 g; in series [2] (setting [7]), 20.9 g; in series [2] (setting [8]), 22.5 g. Moreover, the Average body weight in series [2] (setting [9]) was determined as 23.4 g; in series [2] (setting [10]), 23.0 g; in series [2] (setting [11]) it was 22.8 g; in series [2] (setting [12]) it was 23.3 g. Besides, the “Body weight of the mice compared to the control group (tolerance)” value in series [2] is reported as “no significant difference”.
